Data on two compounds can be found in PubChem BioAssay AID1259407 (Chemical Carcinogenesis Research Information System (CCRIS), 2018).

The source made the active and inactive calls. How the calls were made is not given here.

The subject of the data set is CCRIS mutagenicity, Ames/micronucleus/aberration tests. Briefly: CCRIS mutagenicity studies.
Where [1] appears, read: Test System: AMES SALMONELLA TYPHIMURIUM, Strain/Indicator: TA97, Metabolic Activation: NONE, Method: PREINCUBATION
[2] abbreviates: Test System: AMES SALMONELLA TYPHIMURIUM, Strain/Indicator: TA98, Metabolic Activation: NONE, Method: PREINCUBATION
The mark [3] stands for this setting: Test System: AMES SALMONELLA TYPHIMURIUM, Strain/Indicator: TA100, Metabolic Activation: NONE, Method: PREINCUBATION

On to `c1ccc(N2CCNCC2)cc1`, for which the mutagenic call runs as follows: (Test System: AMES SALMONELLA TYPHIMURIUM, Strain/Indicator: TA97, Metabolic Activation: HAMSTER, LIVER, S-9, AROCLOR 1254, Method: PREINCUBATION) “inactive; negative”; under setting [1], “inactive; negative”; (Test System: AMES SALMONELLA TYPHIMURIUM, Strain/Indicator: TA97, Metabolic Activation: RAT, LIVER, S-9, AROCLOR 1254, Method: PREINCUBATION) “inactive; negative”; (Test System: AMES SALMONELLA TYPHIMURIUM, Strain/Indicator: TA98, Metabolic Activation: HAMSTER, LIVER, S-9, AROCLOR 1254, Method: PREINCUBATION) “inactive; negative”; under setting [2], “inactive; negative”; (Test System: AMES SALMONELLA TYPHIMURIUM, Strain/Indicator: TA98, Metabolic Activation: RAT, LIVER, S-9, AROCLOR 1254, Method: PREINCUBATION) “inactive; negative”. The mutagenic call runs as follows: (Test System: AMES SALMONELLA TYPHIMURIUM, Strain/Indicator: TA100, Metabolic Activation: HAMSTER, LIVER, S-9, AROCLOR 1254, Method: PREINCUBATION) “inactive; negative”; under setting [3], “inactive; negative”; (Test System: AMES SALMONELLA TYPHIMURIUM, Strain/Indicator: TA100, Metabolic Activation: RAT, LIVER, S-9, AROCLOR 1254, Method: PREINCUBATION) “inactive; negative”.
As to `O=P(OC(CCl)CCl)(OC(CCl)CCl)OC(CCl)CCl`, the mutagenic call is “active; positive” (Test System: AMES SALMONELLA TYPHIMURIUM, Strain/Indicator: TA97, Metabolic Activation: HAMSTER, LIVER, S-9, AROCLOR 1254 (10%), Method: PREINCUBATION); “inactive; negative” under setting [1]; “inactive; negative” (Test System: AMES SALMONELLA TYPHIMURIUM, Strain/Indicator: TA97, Metabolic Activation: RAT, LIVER, S-9, AROCLOR 1254 (10%), Method: PREINCUBATION); “inactive; negative” (Test System: AMES SALMONELLA TYPHIMURIUM, Strain/Indicator: TA98, Metabolic Activation: HAMSTER, LIVER, S-9, AROCLOR 1254 (10%), Method: PREINCUBATION); “inactive; negative” under setting [2]; “inactive; negative” (Test System: AMES SALMONELLA TYPHIMURIUM, Strain/Indicator: TA98, Metabolic Activation: RAT, LIVER, S-9, AROCLOR 1254 (10%), Method: PREINCUBATION). Moreover, the mutagenic call is “active; positive” (Test System: AMES SALMONELLA TYPHIMURIUM, Strain/Indicator: TA100, Metabolic Activation: HAMSTER, LIVER, S-9, AROCLOR 1254 (10%), Method: PREINCUBATION); “inactive; negative” under setting [3]; “inactive; negative” (Test System: AMES SALMONELLA TYPHIMURIUM, Strain/Indicator: TA100, Metabolic Activation: RAT, LIVER, HEPATOCYTES, PHENOBARBITAL, Method: PREINCUBATION); “active; positive” (Test System: AMES SALMONELLA TYPHIMURIUM, Strain/Indicator: TA100, Metabolic Activation: RAT, LIVER, HEPATOCYTES, Method: PREINCUBATION); “active; positive” (Test System: AMES SALMONELLA TYPHIMURIUM, Strain/Indicator: TA100, Metabolic Activation: RAT, LIVER, MICROSOMES, PHENOBARBITAL, Method: STANDARD PLATE); “inactive; negative” (Test System: AMES SALMONELLA TYPHIMURIUM, Strain/Indicator: TA100, Metabolic Activation: RAT, LIVER, S-9, AROCLOR 1254 (10%), Method: PREINCUBATION). For the same compound, the mutagenic call reads like this: (Test System: AMES SALMONELLA TYPHIMURIUM, Strain/Indicator: TA100, Metabolic Activation: RAT, LIVER, S-9, PHENOBARBITAL, Method: STANDARD PLATE) “active; positive”; (Test System: AMES SALMONELLA TYPHIMURIUM, Strain/Indicator: TA100, Metabolic Activation: RAT, LIVER, S-9, Method: STANDARD PLATE) “inactive; negative”; (Test System: AMES SALMONELLA TYPHIMURIUM, Strain/Indicator: TA1535, Metabolic Activation: HAMSTER, LIVER, S-9, AROCLOR 1254 (10%), Method: PREINCUBATION) “active; positive”; (Test System: AMES SALMONELLA TYPHIMURIUM, Strain/Indicator: TA1535, Metabolic Activation: NONE, Method: PREINCUBATION) “inactive; negative”; (Test System: AMES SALMONELLA TYPHIMURIUM, Strain/Indicator: TA1535, Metabolic Activation: RAT, LIVER, S-9, AROCLOR 1254 (10%), Method: PREINCUBATION) “active; positive”; (Test System: AMES SALMONELLA TYPHIMURIUM, Strain/Indicator: TA1537, Metabolic Activation: HAMSTER, LIVER, S-9, AROCLOR 1254 (10%), Method: PREINCUBATION) “inactive; negative”. The mutagenic call reads like this: (Test System: AMES SALMONELLA TYPHIMURIUM, Strain/Indicator: TA1537, Metabolic Activation: NONE, Method: PREINCUBATION) “inactive; negative”; (Test System: AMES SALMONELLA TYPHIMURIUM, Strain/Indicator: TA1537, Metabolic Activation: RAT, LIVER, S-9, AROCLOR 1254 (10%), Method: PREINCUBATION) “inactive; negative”; (Test System: CHINESE HAMSTER V-79, Strain/Indicator: V-79/6-THIOGUANINE, Metabolic Activation: RAT, LIVER, MICROSOMES, PHENOBARBITAL) “inactive; negative”; (Test System: UDS RODENT HEPATOCYTES, Strain/Indicator: THY INCORP (NON-S-PHASE), Metabolic Activation: RAT, LIVER, HEPATOCYTES, PHENOBARBITAL, Method: LIQUID SCINTILLATION COUNTING) “inactive; negative”; (Test System: UDS RODENT HEPATOCYTES, Strain/Indicator: THY INCORP (NON-S-PHASE), Metabolic Activation: RAT, LIVER, HEPATOCYTES, Method: LIQUID SCINTILLATION COUNTING) “inactive; negative”.
